Six molecules from ChEMBL document CHEMBL1152855, “Regioselective synthesis of dispiro[1H-indene-2,3'-pyrrolidine-2',3''-[3H]indole]-1,2''(1''H)-diones of potential anti-tumor properties” (2009) can be followed below.

The subject of one experiment is ACHN. In words: Growth inhibition of human ACHN cells at 10 uM after 48 hrs by sulforhodamine B assay. To be noted: values are per cent of control. The format is functional. On the technique in general: Sulforhodamine B stains cellular protein and so reports cell mass.
The subject of a further experiment is SW-620. In words: Growth inhibition of human SW620 cells at 10 uM after 48 hrs by sulforhodamine B assay. The format is functional. To be noted: SW-620, 48 h, values are per cent of control.
The test system of a further experiment is MDA-MB-435. In words: Growth inhibition of human MDA-MB-435 cells at 10 uM after 48 hrs by sulforhodamine B assay. Type of experiment: functional. To be noted: MDA-MB-435, 48 h, values are per cent of control.
The next experiment concerns HCC 2998. Briefly: Growth inhibition of human HCC2998 cells at 10 uM after 48 hrs by sulforhodamine B assay. The format is functional. To be noted: HCC 2998, 48 h, values are per cent of control.
Experiment [1] has as its system Rattus norvegicus. Briefly: Antiinflammatory activity against carrageenan-induced paw edema in Wister albino rat assessed as inhibition of edema at 50 mg/kg, ip administered 1 hr prior to carrageenan challenge measured after 4 hrs relative to indomethacin. To be noted: route intraperitoneal. Type of experiment: functional. For orientation: The carrageenan paw model is a standard test of acute inflammation.

For another experiment, the system named is HCT-116. In words: Growth inhibition of human HCT116 cells at 10 uM after 48 hrs by sulforhodamine B assay. Type of experiment: functional. To be noted: HCT-116, 48 h, values are per cent of control.
A further experiment concerns COLO 205. In words: Growth inhibition of human COLO205 cells at 10 uM after 48 hrs by sulforhodamine B assay. The format is functional. To be noted: COLO 205, 48 h, values are per cent of control.
The subject of a further experiment is A498. In words: Growth inhibition of human A498 cells at 10 uM after 48 hrs by sulforhodamine B assay. The format is functional. To be noted: A498, 48 h, values are per cent of control.
The test system of a further experiment is OVCAR-3. In words: Growth inhibition of human OVCAR-3 cells at 10 uM after 48 hrs by sulforhodamine B assay. The format is functional. To be noted: OVCAR-3, 48 h, values are per cent of control.
The test system of the next experiment is BT-549. In words: Growth inhibition of human BT549 cells at 10 uM after 48 hrs by sulforhodamine B assay. Type of experiment: functional. To be noted: BT-549, 48 h, values are per cent of control.
The next experiment deals with TK-10. Briefly: Growth inhibition of human TK10 cells at 10 uM after 48 hrs by sulforhodamine B assay; values are per cent of control. To be noted: TK-10, 48 h.
The next experiment relates to RPMI-8226. Briefly: Growth inhibition of human RPMI8226 cells at 10 uM after 48 hrs by sulforhodamine B assay. Type of experiment: functional. To be noted: RPMI-8226, 48 h, read-out: GI.
In another experiment the test system is SF-295. Briefly: Growth inhibition of human SF295 cells at 10 uM after 48 hrs by sulforhodamine B assay. The format is functional. To be noted: SF-295, 48 h, values are per cent of control.
Another experiment concerns KM12. Briefly: Growth inhibition of human KM12 cells at 10 uM after 48 hrs by sulforhodamine B assay. The format is functional. To be noted: KM12, 48 h, values are per cent of control.
Experiment [2] has as its system Rattus norvegicus. In words: Antiinflammatory activity against carrageenan-induced paw edema in Wister albino rat assessed as inhibition of edema at 50 mg/kg, ip administered 1 hr prior to carrageenan challenge measured after 1 hr relative to control. Type of experiment: functional. To be noted: route intraperitoneal.
The subject of experiment [3] is Rattus norvegicus. In words: Antiinflammatory activity against carrageenan-induced paw edema in Wister albino rat assessed as inhibition of edema at 50 mg/kg, ip administered 1 hr prior to carrageenan challenge measured after 4 hrs relative to control. The format is functional. To be noted: route intraperitoneal.
For another experiment, the system named is OVCAR-8. Briefly: Growth inhibition of human OVCAR8 cells at 10 uM after 48 hrs by sulforhodamine B assay. Type of experiment: functional. To be noted: OVCAR-8, 48 h, read-out: GI.
The subject of another experiment is SNB-75. Briefly: Growth inhibition of human SNB75 cells at 10 uM after 48 hrs by sulforhodamine B assay. Type of experiment: functional. To be noted: SNB-75, 48 h, values are per cent of control.
The subject of another experiment is HL-60(TB). In words: Growth inhibition of human HL-60(TB) cells at 10 uM after 48 hrs by sulforhodamine B assay. To be noted: HL-60, 48 h, read-out: GI. Type of experiment: functional.
A short description of experiment [4]: Growth inhibition of human Hs 578T cells at 10 uM after 48 hrs by sulforhodamine B assay. Type of experiment: functional. To be noted: values are per cent of control.
The test system of the next experiment is Malme-3M. Briefly: Growth inhibition of human MALME-3M cells at 10 uM after 48 hrs by sulforhodamine B assay. The format is functional. To be noted: values are per cent of control.
For a further experiment, the system named is SNB-19. In words: Growth inhibition of human SNB19 cells at 10 uM after 48 hrs by sulforhodamine B assay. The format is functional. To be noted: SNB-19, 48 h, values are per cent of control.

The inhibition in vivo is the percentage by which the read-out fell short of the control. `[3H]N1C(=O)[C@@]2(c3ccccc31)N(C)C[C@@H](c1ccc(OC)cc1)[C@@]21Cc2ccccc2C1=O`: the growth, % of control at 10 µM in the experiment on ACHN was found to be 98.1%; in the experiment on SW-620, 87.5%; with MDA-MB-435, 124%; with HCC 2998, 76.7%; with HCT-116 it was 92.6%; in the experiment with COLO 205 it was 100%. Besides, the growth, % of control at 10 µM in the experiment on A498 was 105%; in the experiment with OVCAR-3 it was 98.5%; in the experiment with BT-549 it was 118%; with TK-10 it was 176%; in the experiment with SF-295, 103%; with KM12, 95.3%. The growth, % of control at 10 µM came out at 102% in the experiment with SNB-75; 72.8% in the experiment on HL-60(TB); 16.8% in experiment [4]; 132% in the experiment with Malme-3M; 92.2% with SNB-19. The activity relative to indomethacin with Rattus norvegicus [1] is 45%. Also, the figures for the inhibition of growth at 10 µM with RPMI-8226 and in the experiment on OVCAR-8 were 66.8% and 55.3%, respectively. Further, the figures for the inhibition in vivo at 50 mg/kg in the experiment on Rattus norvegicus [2] and with Rattus norvegicus [3] were 41.2% and 21.8%, respectively.
In the case of `[3H]C([3H])([3H])N1C(=O)[C@@]2(c3ccccc31)N(C)C[C@@H](c1ccc(OC)cc1)[C@@]21Cc2ccccc2C1=O`, the growth, % of control at 10 µM in the experiment with ACHN is 82.8%; in the experiment with SW-620 it was 83.3%; in the experiment with MDA-MB-435, 101%; with HCC 2998, 104%; in the experiment with HCT-116, 59.8%; in the experiment on COLO 205, 104%. For the same molecule, the growth, % of control at 10 µM was found to be 95.2% with A498; 92.5% with OVCAR-3; 101% with BT-549; 165% with TK-10; 89.1% in the experiment on SF-295; 98.2% with KM12. Besides, the growth, % of control at 10 µM in the experiment on SNB-75 is 79%; in the experiment with HL-60(TB), 170%; in [4], -4.27%; in the experiment with Malme-3M it was 104%; with SNB-19 it was 94.1%. Moreover, the activity relative to indomethacin in the experiment with Rattus norvegicus [1] is 8%. Besides, the inhibition of growth at 10 µM with RPMI-8226 is 17.7%; with OVCAR-8 it was 83.8%. Also, the inhibition in vivo at 50 mg/kg in the experiment on Rattus norvegicus [2] worked out at 46.9%; with Rattus norvegicus [3], 3.8%.
For the molecule `[3H]N1C(=O)[C@@]2(c3ccccc31)N(C)C[C@@H](c1cccs1)[C@@]21Cc2ccccc2C1=O`, the growth, % of control at 10 µM in the experiment with ACHN is 97.9%; in the experiment with SW-620 it was 89.5%; in the experiment with MDA-MB-435, 115%; with HCC 2998, 103%; in the experiment on HCT-116, 92.2%; in the experiment on COLO 205 it was 120%. Further, the growth, % of control at 10 µM turned out to be 102% with A498; 95.6% in the experiment with OVCAR-3; 119% with BT-549; 144% with TK-10; 105% with SF-295; 94.3% with KM12. The growth, % of control at 10 µM in the experiment on SNB-75 turned out to be 81%; in the experiment on HL-60(TB) it was 89.7%; in experiment [4], 69.8%; with Malme-3M, 93.5%; in the experiment on SNB-19, 99.8%. For the same molecule, the activity relative to indomethacin with Rattus norvegicus [1] was found to be 41%. For the same molecule, the inhibition of growth at 10 µM in the experiment on RPMI-8226 was found to be 89.1%; in the experiment with OVCAR-8, 60.2%. The inhibition in vivo at 50 mg/kg in the experiment on Rattus norvegicus [2] turned out to be 49.9%; in the experiment on Rattus norvegicus [3] it was 20%.
On to `[3H]C([3H])([3H])N1C(=O)[C@@]2(c3ccccc31)N(C)C[C@@H](c1cccs1)[C@@]21Cc2ccccc2C1=O`, for which the growth, % of control at 10 µM with ACHN was determined as 98.4%; with SW-620, 89.1%; in the experiment on MDA-MB-435 it was 111%; in the experiment with HCC 2998 it was 104%; in the experiment on HCT-116 it was 108%; in the experiment with COLO 205 it was 107%. The growth, % of control at 10 µM with A498 was 103%; in the experiment with OVCAR-3, 100%; with BT-549, 131%; in the experiment with TK-10, 149%; with SF-295 it was 60.4%; in the experiment on KM12, 107%. Also, the growth, % of control at 10 µM with SNB-75 was determined as 79%; in the experiment with HL-60(TB), 70%; in experiment [4], 21.1%; in the experiment on Malme-3M it was 123%; with SNB-19 it was 96.2%. Further, in the experiment with Rattus norvegicus [1], the activity relative to indomethacin amounted to 27%. Besides, the inhibition of growth at 10 µM was found to be 87.9% in the experiment on RPMI-8226 and 64% in the experiment on OVCAR-8. Further, the results for the inhibition in vivo at 50 mg/kg with Rattus norvegicus [2] and with Rattus norvegicus [3] were 33% and 12.9%, respectively.
On to `[3H]N1C(=O)[C@@]2(c3ccccc31)N(C)C[C@@H](c1ccc(Cl)cc1)[C@@]21Cc2ccccc2C1=O`, for which the growth, % of control at 10 µM in the experiment on ACHN came out at 80.5%; in the experiment with SW-620, 76.2%; in the experiment on MDA-MB-435 it was 95.1%; with HCC 2998, 95.7%; in the experiment with HCT-116 it was 54.6%; in the experiment on COLO 205 it was 84.8%. In addition, the growth, % of control at 10 µM with A498 is 61.9%; with OVCAR-3 it was 78.6%; with BT-549, 121%; with TK-10 it was 144%; in the experiment on SF-295 it was 31.4%; with KM12, 81.2%. Besides, the growth, % of control at 10 µM is 61.1% in the experiment with SNB-75; 76.7% in the experiment on HL-60(TB); -4.92% in experiment [4]; 120% in the experiment with Malme-3M; 89.9% with SNB-19. In addition, the activity relative to indomethacin with Rattus norvegicus [1] came to 32%. For the same molecule, the inhibition of growth at 10 µM in the experiment on RPMI-8226 was found to be 36.6%; with OVCAR-8, 69.2%. In addition, the inhibition in vivo at 50 mg/kg in the experiment on Rattus norvegicus [2] was 27.9%; with Rattus norvegicus [3] it was 15.6%.
As for `[3H]C([3H])([3H])N1C(=O)[C@@]2(c3ccccc31)N(C)C[C@@H](c1ccc(Cl)cc1)[C@@]21Cc2ccccc2C1=O`, the growth, % of control at 10 µM with ACHN amounted to 82.8%; with SW-620 it was 67.8%; in the experiment on MDA-MB-435, 101%; in the experiment on HCC 2998 it was 88%; with HCT-116 it was 24.3%; in the experiment on COLO 205, 70.5%. Also, the growth, % of control at 10 µM with A498 came to 82.3%; in the experiment on OVCAR-3 it was 69.3%; in the experiment on BT-549, 111%; in the experiment with TK-10 it was 140%; with SF-295, 65%; in the experiment with KM12 it was 68.7%. In addition, the growth, % of control at 10 µM was determined as 75.3% with SNB-75, 55.2% in experiment [4], 102% with Malme-3M and 89.9% in the experiment on SNB-19. In the experiment with Rattus norvegicus [1], the activity relative to indomethacin was 18%. In addition, the inhibition of growth at 10 µM is 13.4% in the experiment on RPMI-8226 and 60.9% in the experiment with OVCAR-8. Also, the inhibition in vivo at 50 mg/kg with Rattus norvegicus [2] was found to be 47.2%; in the experiment with Rattus norvegicus [3], 8.5%.
